Experimental data published in the NIST ThermoML archive (doi:10.1016/j.fluid.2010.10.028).

Experiment: xn = mol fraction of the nth substance listed
Conditions: Liquid, Vibrating tube method

CC(C)=O [acetone] + CCCCCCC
Conditions	mass density [kg/m3]
367.48 K, 69840 kPa, x1 = 0.8992	761.04
367.48 K, 74790 kPa, x1 = 0.7024	736.93
367.48 K, 74820 kPa, x1 = 0.4	764.83
367.48 K, 74820 kPa, x1 = 0.8992	764.83
367.48 K, 74880 kPa, x1 = 0.611	727.57
367.48 K, 79790 kPa, x1 = 0.4	768.48
367.48 K, 79790 kPa, x1 = 0.8992	768.48
367.48 K, 84760 kPa, x1 = 0.7024	743.91
367.48 K, 84780 kPa, x1 = 0.4	772.02
367.48 K, 84780 kPa, x1 = 0.8992	772.02
367.48 K, 84860 kPa, x1 = 0.611	734.42
367.48 K, 89740 kPa, x1 = 0.4	775.41
367.48 K, 89740 kPa, x1 = 0.8992	775.41
367.48 K, 89840 kPa, x1 = 0.611	737.67
367.48 K, 94810 kPa, x1 = 0.611	740.81
367.48 K, 99700 kPa, x1 = 0.4	781.91
367.48 K, 99700 kPa, x1 = 0.8992	781.91
367.48 K, 104670 kPa, x1 = 0.4	785.01
367.48 K, 104670 kPa, x1 = 0.8992	785.01
367.48 K, 104780 kPa, x1 = 0.611	746.78
367.48 K, 109630 kPa, x1 = 0.4	788.01
367.48 K, 109630 kPa, x1 = 0.8992	788.01
367.48 K, 114860 kPa, x1 = 0.611	752.48
367.48 K, 119560 kPa, x1 = 0.4	793.8
367.48 K, 119560 kPa, x1 = 0.8992	793.8
367.48 K, 119860 kPa, x1 = 0.611	755.19
367.48 K, 124530 kPa, x1 = 0.4	796.59
367.48 K, 124530 kPa, x1 = 0.8992	796.59
367.48 K, 129810 kPa, x1 = 0.4	799.46
367.48 K, 129810 kPa, x1 = 0.8992	799.46
367.49 K, 1150 kPa, x1 = 0.492	636.24
367.49 K, 1160 kPa, x1 = 0.801	665.36
367.49 K, 1370 kPa, x1 = 0.4	680.97
367.49 K, 1370 kPa, x1 = 0.8992	680.97
367.49 K, 4860 kPa, x1 = 0.801	672.53
367.49 K, 4870 kPa, x1 = 0.492	643.34
367.49 K, 4870 kPa, x1 = 0.611	651.91
367.49 K, 9840 kPa, x1 = 0.801	681.17
367.49 K, 9860 kPa, x1 = 0.492	651.84
367.49 K, 14860 kPa, x1 = 0.801	688.96
367.49 K, 14870 kPa, x1 = 0.492	659.41
367.49 K, 14880 kPa, x1 = 0.611	668.22
367.49 K, 19850 kPa, x1 = 0.801	696.01
367.49 K, 19860 kPa, x1 = 0.492	666.25
367.49 K, 24850 kPa, x1 = 0.801	702.51
367.49 K, 29860 kPa, x1 = 0.801	708.54
367.49 K, 34850 kPa, x1 = 0.492	683.77
367.49 K, 34860 kPa, x1 = 0.801	714.16
367.49 K, 34950 kPa, x1 = 0.4	729.18
367.49 K, 34950 kPa, x1 = 0.8992	729.18
367.49 K, 39860 kPa, x1 = 0.611	698.15
367.49 K, 44850 kPa, x1 = 0.492	693.62
367.49 K, 54840 kPa, x1 = 0.801	733.6
367.49 K, 59920 kPa, x1 = 0.611	716.21
367.49 K, 69900 kPa, x1 = 0.611	723.93
367.49 K, 79870 kPa, x1 = 0.611	731.07
367.49 K, 94730 kPa, x1 = 0.4	778.72
367.49 K, 94730 kPa, x1 = 0.8992	778.72
367.49 K, 99800 kPa, x1 = 0.611	743.84
367.49 K, 99840 kPa, x1 = 0.492	733.62
367.49 K, 104810 kPa, x1 = 0.492	736.49
367.49 K, 109800 kPa, x1 = 0.492	739.28
367.49 K, 109850 kPa, x1 = 0.611	749.68
367.49 K, 114600 kPa, x1 = 0.4	790.95
367.49 K, 114600 kPa, x1 = 0.8992	790.95
367.49 K, 114760 kPa, x1 = 0.492	742
367.49 K, 119830 kPa, x1 = 0.492	744.68
367.49 K, 124840 kPa, x1 = 0.492	747.26
367.49 K, 124860 kPa, x1 = 0.611	757.81
367.49 K, 129850 kPa, x1 = 0.492	749.77
367.49 K, 129850 kPa, x1 = 0.611	760.39
367.5 K, 24850 kPa, x1 = 0.492	672.52
367.5 K, 29850 kPa, x1 = 0.492	678.35
367.5 K, 39850 kPa, x1 = 0.801	719.44
367.5 K, 39860 kPa, x1 = 0.492	688.84
367.5 K, 44870 kPa, x1 = 0.801	724.43
367.5 K, 49850 kPa, x1 = 0.492	698.13
367.5 K, 49850 kPa, x1 = 0.801	729.14
367.5 K, 54850 kPa, x1 = 0.492	702.41
367.5 K, 59830 kPa, x1 = 0.801	737.85
367.5 K, 59870 kPa, x1 = 0.492	706.5
367.5 K, 64830 kPa, x1 = 0.492	710.35
367.5 K, 64930 kPa, x1 = 0.801	742.02
367.5 K, 69830 kPa, x1 = 0.492	714.07
367.5 K, 69910 kPa, x1 = 0.801	745.93
367.5 K, 74910 kPa, x1 = 0.801	749.67
367.5 K, 74930 kPa, x1 = 0.492	717.72
367.5 K, 79900 kPa, x1 = 0.801	753.27
367.5 K, 79920 kPa, x1 = 0.492	721.13
367.5 K, 84870 kPa, x1 = 0.801	756.74
367.5 K, 84880 kPa, x1 = 0.492	724.42
367.5 K, 89850 kPa, x1 = 0.801	760.09
367.5 K, 89870 kPa, x1 = 0.492	727.6
367.5 K, 94840 kPa, x1 = 0.801	763.33
367.5 K, 94860 kPa, x1 = 0.492	730.65
367.5 K, 99820 kPa, x1 = 0.801	766.48
367.5 K, 104790 kPa, x1 = 0.801	769.51
367.5 K, 109770 kPa, x1 = 0.801	772.47
367.5 K, 114840 kPa, x1 = 0.801	775.42
367.5 K, 119830 kPa, x1 = 0.801	778.22
367.5 K, 124850 kPa, x1 = 0.801	780.96
367.5 K, 129850 kPa, x1 = 0.801	783.62
377.39 K, 1230 kPa, x1 = 0.611	632.91
377.39 K, 4860 kPa, x1 = 0.611	640.68
377.39 K, 9830 kPa, x1 = 0.7024	659.14
377.39 K, 9860 kPa, x1 = 0.611	650.09
377.39 K, 14860 kPa, x1 = 0.611	658.35
377.39 K, 39860 kPa, x1 = 0.611	690.09
377.39 K, 74880 kPa, x1 = 0.611	720.69
377.39 K, 84850 kPa, x1 = 0.611	727.78
377.39 K, 99800 kPa, x1 = 0.611	737.52
377.39 K, 119850 kPa, x1 = 0.611	749.19
377.39 K, 124860 kPa, x1 = 0.611	751.9
377.4 K, 1220 kPa, x1 = 0.492	624.83
377.4 K, 1220 kPa, x1 = 0.7024	641.88
377.4 K, 1230 kPa, x1 = 0.801	652.62
377.4 K, 4820 kPa, x1 = 0.7024	649.63
377.4 K, 4850 kPa, x1 = 0.801	660.44
377.4 K, 4860 kPa, x1 = 0.492	632.5
377.4 K, 9850 kPa, x1 = 0.492	641.73
377.4 K, 9860 kPa, x1 = 0.801	669.95
377.4 K, 14830 kPa, x1 = 0.7024	667.51
377.4 K, 14850 kPa, x1 = 0.801	678.33
377.4 K, 14860 kPa, x1 = 0.492	649.89
377.4 K, 19830 kPa, x1 = 0.7024	675.07
377.4 K, 19850 kPa, x1 = 0.492	657.2
377.4 K, 19850 kPa, x1 = 0.801	685.9
377.4 K, 19860 kPa, x1 = 0.611	665.8
377.4 K, 24840 kPa, x1 = 0.492	663.85
377.4 K, 24840 kPa, x1 = 0.7024	681.95
377.4 K, 24860 kPa, x1 = 0.611	672.6
377.4 K, 24870 kPa, x1 = 0.801	692.89
377.4 K, 29840 kPa, x1 = 0.7024	688.29
377.4 K, 29860 kPa, x1 = 0.611	678.86
377.4 K, 34830 kPa, x1 = 0.7024	694.18
377.4 K, 34840 kPa, x1 = 0.492	675.68
377.4 K, 34870 kPa, x1 = 0.611	684.68
377.4 K, 39820 kPa, x1 = 0.7024	699.65
377.4 K, 39850 kPa, x1 = 0.492	681.01
377.4 K, 44820 kPa, x1 = 0.7024	704.82
377.4 K, 44850 kPa, x1 = 0.611	695.17
377.4 K, 44870 kPa, x1 = 0.492	686.02
377.4 K, 49820 kPa, x1 = 0.7024	709.68
377.4 K, 49840 kPa, x1 = 0.492	690.72
377.4 K, 49850 kPa, x1 = 0.611	699.96
377.4 K, 54810 kPa, x1 = 0.7024	714.29
377.4 K, 54870 kPa, x1 = 0.801	725.65
377.4 K, 54930 kPa, x1 = 0.611	704.59
377.4 K, 59810 kPa, x1 = 0.7024	718.67
377.4 K, 59840 kPa, x1 = 0.492	699.41
377.4 K, 59850 kPa, x1 = 0.801	730.07
377.4 K, 59940 kPa, x1 = 0.611	708.91
377.4 K, 64790 kPa, x1 = 0.7024	722.84
377.4 K, 64830 kPa, x1 = 0.801	734.28
377.4 K, 64920 kPa, x1 = 0.611	713
377.4 K, 69890 kPa, x1 = 0.7024	726.94
377.4 K, 69900 kPa, x1 = 0.611	716.92
377.4 K, 69920 kPa, x1 = 0.492	707.37
377.4 K, 69930 kPa, x1 = 0.801	738.44
377.4 K, 74790 kPa, x1 = 0.4	757.14
377.4 K, 74790 kPa, x1 = 0.8992	757.14
377.4 K, 74870 kPa, x1 = 0.7024	730.75
377.4 K, 74920 kPa, x1 = 0.801	742.33
377.4 K, 79860 kPa, x1 = 0.7024	734.43
377.4 K, 79880 kPa, x1 = 0.611	724.31
377.4 K, 79890 kPa, x1 = 0.492	714.63
377.4 K, 79910 kPa, x1 = 0.801	746.08
377.4 K, 84840 kPa, x1 = 0.7024	737.97
377.4 K, 84870 kPa, x1 = 0.492	718.02
377.4 K, 84910 kPa, x1 = 0.801	749.68
377.4 K, 89820 kPa, x1 = 0.7024	741.37
377.4 K, 89840 kPa, x1 = 0.611	731.15
377.4 K, 89860 kPa, x1 = 0.492	721.32
377.4 K, 89880 kPa, x1 = 0.801	753.15
377.4 K, 94790 kPa, x1 = 0.7024	744.65
377.4 K, 94820 kPa, x1 = 0.611	734.38
377.4 K, 94830 kPa, x1 = 0.492	724.48
377.4 K, 94860 kPa, x1 = 0.801	756.48
377.4 K, 99780 kPa, x1 = 0.7024	747.85
377.4 K, 99820 kPa, x1 = 0.492	727.55
377.4 K, 99840 kPa, x1 = 0.801	759.75
377.4 K, 104750 kPa, x1 = 0.7024	750.93
377.4 K, 104780 kPa, x1 = 0.611	740.53
